Literature values as cited in patent publication US6855805B2 (priority 1999, dated 2005).

test system: neuromuscular block; conditions: dose mg/kg: Sux 1.0, Org 9847 1.5, Rocuronium 0.6, Mivacurium 0.2, Vecuronium 0.1, Cisatracurium 0.1

SMILES	Onset Time	Recovery 25%	Recovery 75%
COc1cc2c(cc1OC)[C@@H](Cc1cc(OC)c(OC)c(OC)c1)[N+](C)(CCCOC(=O)CC/C=C/CCC(=O)OCCC[N+]1(C)CCc3cc(OC)c(OC)cc3[C@H]1Cc1cc(OC)c(OC)c(OC)c1)CC2 (stereo partly drawn) [Mivacurium]	150 s	20 min	27 min
CC(=O)O[C@H]1C[C@@H]2CC[C@@H]3[C@H](CC[C@@]4(C)[C@H]3C[C@H]([N+]3(C)CCCCC3)[C@@H]4OC(C)=O)[C@@]2(C)C[C@@H]1N1CCCCC1 [Vecuronium]	120 to 180 s	40 min	60 min
C[N+](C)(C)CCOC(=O)CCC(=O)OCC[N+](C)(C)C [Sux, succinylcholine chloride]	60 s	5 to 7 min	10 min
COc1ccc(C[C@@H]2c3cc(OC)c(OC)cc3CC[N@+]2(C)CCC(=O)OCCCCCOC(=O)CC[N@@+]2(C)CCc3cc(OC)c(OC)cc3[C@H]2Cc2ccc(OC)c(OC)c2)cc1OC [Cisatracurium]	120 to 180 s	45 min	60 to 70 min
C=CC[N+]1([C@H]2C[C@H]3[C@@H]4CC[C@H]5C[C@H](O)[C@@H](N6CCOCC6)C[C@]5(C)[C@H]4CC[C@]3(C)[C@H]2OC(C)=O)CCCC1 [Rocuronium]	80 s	40 min	60 min
